From PMC11435438, “Cyclin-Dependent Kinase 8 Represents a Positive Regulator of Cytomegalovirus Replication and a Novel Host Target for Antiviral Strategies” (Pharmaceutics, 2024)
Where two headings read alike, the source gives them in different places.

What was measured:
[1] = Neutral Red uptake cell viability assay in mock-infected U373 cells; assay type: cell-based; details: human, read-out: CC50 Mock-inf.
Method: (§1) To address cell viability after compound treatment, a NR uptake assay was performed. Uninfected cells were seeded at equal numbers as for antiviral replication assays and treated with compounds or solvent control. The treatment was performed for HFFs (7 d), U373 (14 d), A549 (3 d), J-Jhan (14 d), and non-dox-induced iSLK.219 cells (3 d). At the end of the treatment period, 40 µg/mL of Neutral Red (NR) was added and incubated for 2–4 h at 37 °C, before the NR-containing supernatant was removed. Cells were destained using a solution containing 50% ethanol, 1% acetic acid, and 49% water. NR fluorescence was quantified using the Victor X4 microplate reader (PerkinElmer, Waltham, MA, USA) (560/630 nm). For the AB cell viability assay, which was also used to quantify virus-induced cytopathogenicity (particularly in the case of GPCMV in GPEFs), cells were seeded at equal numbers as for antiviral replication assays and incubated with a medium containing 25 ng/mL AB (resazurin; Ann Arbor, MI, USA), incubated for 6 h at 37 °C, and used for measurement identical with NR.

HCMV AD169-GFP [2] = assay: HCMV AD169-GFP replication assay in U373 cells; assay type: cell-based, human cytomegalovirus; details: Human betaherpesvirus 5, AD169, U373 MG, read-out: EC50 AD169-GFP
Method: (§2) (i.e., 1 × TCID25/7d). Immediately after virus adsorption, the cells were treated with antiviral compounds or solvent control (DMSO). Infections were performed in biological quadruplicates, or as indicated for individual experiments. The cells were fixed by the addition of 150 µL 10% formalin/well 7 d p.i. (Merlin-GFP 14 d p.i.), and washed with PBS. For GFP or YFP quantitation, the Victor X4 microplate reader (PerkinElmer, Waltham, MA, USA) was primarily used, or as a very sensitive alternative, the ImageXpress® Pico device (Molecular Devices LLC, San Jose, CA, USA). Mean EC50 values of antiviral efficacy were calculated on the basis of three experimental replicates or as indicated (measurement of fluorescence values in quadruplicate), and percentage values were provided relative to the solvent control (DMSO).

GPCMV-GFP = GPCMV-GFP replication assay in GPEFs; assay type: cell-based, guinea pig cytomegalovirus; details: Caviid betaherpesvirus 2, read-out: EC50 GPCMV
Excerpt: (§3) Similarly, 2 × 10^4 primary embryonic guinea pig fibroblasts GPEFs/96-well, or 1.35 × 10^4 HFFs/96-well, or 2 × 10^4 rat REFs/96-well, or 2 × 10^4 murine MEFs/96-well, were cultivated for infection with GPCMV-GFP, RhCMV-GFP, ChCMV, RCMV-mCherry, or MCMV-GFP, respectively (all approx. MOI of 0.01 referring to 1 × TCID25), and were used for the assessment of antiviral drug activity. To this end, cells were fixed 7 d p.i. (RCMV-mCherry 4 d p.i.), before GFP or mCherry expression was quantified using the Victor X4 microplate reader, or other viral replication markers were measured as explained for the individual experiments. ChCMV replication in HFFs was monitored and quantified by the use of Anti-Cytomegalovirus Antibody Alexa Fluor™ 488. For immunofluorescence staining with Anti-Cytomegalovirus Antibody Alexa Fluor™ 488 (Sigma Aldrich, St. Louis, MO, USA; solution in PBS with 1% FCS), the infected cells were fixed at 7 d p.i. with 10% formalin and permeabilized with 0.2% Triton-x-100. Cell nuclei were counterstained using Höchst dye to be measured using the ImageXpress Pico (Molecular Devices, LLC, San Jose, CA, USA). Mean EC50 values of antiviral efficacy were calculated on the basis of three experimental replicates or as indicated (measurement of fluorescence values in quadruplicate), and percentage values were provided relative to the solvent control (DMSO).
as §1, with “The treatment was performed for HFFs (7 d), U373 (14 d), A549 (3 d), J-Jhan (14 d), and non-dox-induced iSLK.219 cells (3 d). At the end of the treatment period, 40 µg/mL of Neutral Red (NR) was added and incubated for 2–4 h at 37 °C, before the NR-containing supernatant was removed. Cells were destained using a solution containing 50% ethanol, 1% acetic acid, and 49% water.” left out

HCMV AD169-GFP [3] = assay: microbe, parasite or virus in culture; assay type: cell-based, human cytomegalovirus
Method: as §2

RhCMV-GFP = RhCMV-GFP replication assay in HFFs; assay type: cell-based, rhesus cytomegalovirus; details: in Macaca mulatta, read-out: EC50 RhCMV
Excerpt: as §3

RCMV-mCherry = RCMV-mCherry replication assay in REFs; assay type: cell-based, rat cytomegalovirus; details: in Rattus norvegicus, read-out: EC50 RCMV
Excerpt: as §3

[4] = mock-infected (uninfected) U373 cells
[5] = Human betaherpesvirus 5, AD169, HFF, read-out: EC50 AD169-GFP
[6] = Human betaherpesvirus 5, AD169, read-out: EC50 HCMV

Cc1n[nH]c2ncc(C(=O)N3CCC[C@H]3c3ccc(Cl)cc3)cc12 [MSC-2530818] gave a CC50 at 14 d [1, 4] of 87000 ± 6000 nM, an EC50 (HCMV AD169-GFP [2]) of 18.5 ± 11.2 nM and an EC50 (GPCMV-GFP) of 4.48 ± 4.84 nM. For the same compound, the EC50 (HCMV AD169-GFP [3]; [5]) was 1.21 ± 0.77 nM, the EC50 (HCMV AD169-GFP [3]; [6]) was 1.21 ± 0.77 nM and the EC50 (RhCMV-GFP) was 2.17 ± 1.37 nM. It also gave an EC50 (RCMV-mCherry) of 4.87 ± 4.67 nM.
Compound Cn1ncc2cc(-c3cnc(N)c(Cl)c3N3CCC4(CCNC4=O)CC3)ccc21 [CCT-151921] has a CC50 at 14 d ([1]; U373) of over 100000 nM, an EC50 (HCMV AD169-GFP [2]) of 16.3 ± 7.13 nM and an EC50 (GPCMV-GFP) of 19.4 ± 33.2 nM. For the same compound, the EC50 (HCMV AD169-GFP [3]; [5]) was 3.9 ± 2 nM, the EC50 (HCMV AD169-GFP [3]; [6]) was 3.9 ± 2 nM and the EC50 (RhCMV-GFP) was 2.48 ± 1.63 nM. For the same compound, the EC50 (RCMV-mCherry) was 11.2 ± 22.7 nM.
Compound CN(C)C(=O)Cn1cc(-c2ccc(-c3cncc4ccccc34)cc2)cn1 [BI-1347] has a CC50 at 14 d [1, 4] of over 100000 nM, an EC50 (HCMV AD169-GFP [2]) of 10.8 ± 5.73 nM and an EC50 (GPCMV-GFP) of 1.11 ± 2.37 nM. It also gave an EC50 (HCMV AD169-GFP [3]; [5]) of 0.93 ± 0.67 nM, an EC50 (HCMV AD169-GFP [3]; [6]) of 0.93 ± 0.67 nM and an EC50 (RhCMV-GFP) of 0.4 ± 0.48 nM. For the same compound, the EC50 (RCMV-mCherry) was 1.08 ± 1.49 nM.
